Results published in BindingDB's records for doi:10.3109/14756366.2012.723206 (Yanbian University College of Pharmacy, 2013).

target: T1, Tyrosine-protein phosphatase non-receptor type 1 (Homo sapiens, UniProt P18031); assay: Enzymatic Assay; settings: pH 6.5; 30 °C
T1 sequence (P18031 whole entry): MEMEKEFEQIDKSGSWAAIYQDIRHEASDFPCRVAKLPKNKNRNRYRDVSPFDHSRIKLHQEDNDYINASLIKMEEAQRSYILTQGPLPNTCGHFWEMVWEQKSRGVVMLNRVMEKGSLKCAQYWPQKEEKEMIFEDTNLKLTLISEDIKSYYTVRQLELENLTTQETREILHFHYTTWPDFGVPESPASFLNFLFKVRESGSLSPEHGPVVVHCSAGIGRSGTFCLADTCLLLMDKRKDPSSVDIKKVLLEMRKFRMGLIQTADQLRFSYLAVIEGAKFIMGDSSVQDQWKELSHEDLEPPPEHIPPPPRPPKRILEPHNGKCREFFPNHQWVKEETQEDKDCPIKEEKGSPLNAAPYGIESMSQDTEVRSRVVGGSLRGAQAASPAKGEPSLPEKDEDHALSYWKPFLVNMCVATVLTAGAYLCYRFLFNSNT
Description: Briefly, the enzymatic activity of the PTP1B catalytic domain was determinedat 30°C by monitoring the hydrolysis of pNPP. […] Assays were performed in a total volume of 100 μL containing 50 mmol/L 3-[N-morpholino]propane-sulfonic acid (MOPs), pH = 6.5, 2 mmol/L pNPP, and 30 nmol/L recombinant PTP1B, as well as the indicated concentrations of the inhibitor.

Row | IC50 [µM] | Structure (SMILES)
1 | 9.06 | O=C1CC(c2ccccc2F)Oc2cc(O)cc(O)c21 (stereo not given) [PTP inhibitor, 4a]
2 | 7.98 | O=C1CC(c2cccc(F)c2)Oc2cc(O)cc(O)c21 (stereo not given) [PTP inhibitor, 4b]
3 | 2.66 | O=C1CC(c2ccc(F)cc2)Oc2cc(O)cc(O)c21 (stereo not given) [PTP inhibitor, 4c]
4 | 10.2 | O=C1CC(c2ccccc2Cl)Oc2cc(O)cc(O)c21 (stereo not given) [PTP inhibitor, 4d]
5 | 4.18 | O=C1CC(c2cccc(Cl)c2)Oc2cc(O)cc(O)c21 (stereo not given) [PTP inhibitor, 4e]
6 | 3.6 | O=C1CC(c2ccc(Cl)cc2)Oc2cc(O)cc(O)c21 (stereo not given) [PTP inhibitor, 4f]
7 | 2.4 | O=C1CC(c2ccc(Cl)cc2Cl)Oc2cc(O)cc(O)c21 (stereo not given) [PTP inhibitor, 4g]
8 | 4.9 | O=C1CC(c2ccccc2Br)Oc2cc(O)cc(O)c21 (stereo not given) [PTP inhibitor, 4h]
9 | 7.33 | O=C1CC(c2cccc(Br)c2)Oc2cc(O)cc(O)c21 (stereo not given) [PTP inhibitor, 4i]
10 | 3.48 | O=C1CC(c2ccc(Br)cc2)Oc2cc(O)cc(O)c21 (stereo not given) [PTP inhibitor, 4j]
11 | 2.37 | O=C1CC(c2cccc(C(F)(F)F)c2)Oc2cc(O)cc(O)c21 (stereo not given) [PTP inhibitor, 4k]
12 | 36.7 | O=C1CC(c2ccccc2)Oc2cc(O)cc(O)c21 (stereo not given) [PTP inhibitor, 4l]
13 | 14.1 | Cc1ccc(C2CC(=O)c3c(O)cc(O)cc3O2)cc1 (stereo not given) [PTP inhibitor, 4m]

target: T2, M-phase inducer phosphatase 2 (Homo sapiens, UniProt P30305); assay: Enzymatic Assay; settings: pH 6.5; 30 °C
T2 sequence (P30305 whole entry): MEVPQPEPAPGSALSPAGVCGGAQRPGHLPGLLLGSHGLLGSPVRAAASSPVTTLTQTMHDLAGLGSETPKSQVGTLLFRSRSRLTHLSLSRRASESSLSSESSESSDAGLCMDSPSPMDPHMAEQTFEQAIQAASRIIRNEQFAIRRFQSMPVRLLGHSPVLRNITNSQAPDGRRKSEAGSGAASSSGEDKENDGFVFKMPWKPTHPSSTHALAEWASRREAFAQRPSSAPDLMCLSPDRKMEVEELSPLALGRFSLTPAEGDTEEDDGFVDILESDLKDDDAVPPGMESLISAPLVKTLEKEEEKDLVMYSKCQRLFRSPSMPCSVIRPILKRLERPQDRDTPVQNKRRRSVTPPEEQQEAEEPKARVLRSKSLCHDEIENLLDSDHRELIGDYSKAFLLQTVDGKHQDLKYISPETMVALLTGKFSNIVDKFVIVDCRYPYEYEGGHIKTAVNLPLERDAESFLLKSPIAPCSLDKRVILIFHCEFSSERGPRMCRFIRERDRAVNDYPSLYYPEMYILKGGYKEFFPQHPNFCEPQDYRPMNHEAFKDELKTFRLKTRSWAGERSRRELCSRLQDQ

Row | IC50 [µM] | Structure (SMILES)
14 | 8.54 | O=C1CC(c2cccc(C(F)(F)F)c2)Oc2cc(O)cc(O)c21 (stereo not given) [PTP inhibitor, 4k]

target: T3, Tyrosine-protein phosphatase non-receptor type 2 (Homo sapiens, UniProt P17706); assay: Enzymatic Assay; settings: pH 6.5; 30 °C
T3 sequence (P17706 whole entry): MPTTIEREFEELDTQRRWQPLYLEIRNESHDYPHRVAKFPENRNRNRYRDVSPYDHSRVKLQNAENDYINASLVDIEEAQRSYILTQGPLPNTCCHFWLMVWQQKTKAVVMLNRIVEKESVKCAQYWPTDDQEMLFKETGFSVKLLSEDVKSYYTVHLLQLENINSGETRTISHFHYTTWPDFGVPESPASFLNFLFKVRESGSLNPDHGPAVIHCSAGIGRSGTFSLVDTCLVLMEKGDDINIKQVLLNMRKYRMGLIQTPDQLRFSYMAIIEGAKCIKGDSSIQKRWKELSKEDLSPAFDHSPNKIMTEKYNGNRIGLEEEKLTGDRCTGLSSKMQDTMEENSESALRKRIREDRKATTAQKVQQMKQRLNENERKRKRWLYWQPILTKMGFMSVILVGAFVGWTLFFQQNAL

Row | IC50 [µM] | Structure (SMILES)
15 | 8.82 | O=C1CC(c2cccc(C(F)(F)F)c2)Oc2cc(O)cc(O)c21 (stereo not given) [PTP inhibitor, 4k]
